Details: Liquid

CCCCO [butan-1-ol]
viscosity [mPa·s]
Details	293.15 K	298.15 K	313.15 K	323.15 K	333.15 K	348.15 K	353.15 K
100 kPa, Concentric cylinders viscometry	2.959	–	1.794	–	1.154	–	0.7837
100 kPa, Vibrating wire viscometry	2.969	2.601	1.797	1.429	1.156	0.8579	0.7903
1000 kPa, Vibrating wire viscometry	3.001	2.622	1.813	1.44	1.172	0.8647	0.7943
5000 kPa, Vibrating wire viscometry	3.108	2.715	1.89	1.491	1.227	0.8956	0.8284
10000 kPa, Vibrating wire viscometry	3.244	2.834	1.967	1.556	1.29	0.9349	0.8637
20000 kPa, Vibrating wire viscometry	3.479	3.079	2.14	1.69	1.389	1.016	0.9473
30000 kPa, Vibrating wire viscometry	3.788	3.333	2.319	1.829	1.504	1.101	1.04
40000 kPa, Vibrating wire viscometry	4.078	3.599	2.48	1.975	1.624	1.189	1.102
50000 kPa, Vibrating wire viscometry	4.401	3.874	2.629	2.125	1.741	1.28	1.21
60000 kPa, Vibrating wire viscometry	4.74	4.16	2.852	2.281	1.867	1.375	1.295
70000 kPa, Vibrating wire viscometry	5.076	4.455	3.089	2.443	2.014	1.473	1.384
80000 kPa, Vibrating wire viscometry	5.438	4.761	3.247	2.61	2.137	1.575	1.473
100000 kPa, Vibrating wire viscometry	6.164	5.404	3.686	2.962	2.384	1.788	1.676
120000 kPa, Vibrating wire viscometry	6.979	6.087	4.192	3.335	2.633	2.015	1.857
140000 kPa, Vibrating wire viscometry	7.843	6.811	4.638	3.682	2.883	2.255	2.037

— the NIST ThermoML archive (doi:10.1016/j.jct.2016.07.008)
